Experiments:
human GRP receptor (BB2) = target: T1, human GRP receptor (BB2) (Homo sapiens, UniProt P30550); assay: BB2 binding assay ([125I][Tyr4]bombesin displacement, CHO-K1 membranes); conditions: read-out: hBB2 Ki
T1 construct: expressed in transfected cells; membranes prepared from the cells
In short: (§1)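 Competition against <0.1 nM [125I][Tyr4]bombesin, 60 min for the NMB receptor and 90 min for the GRP receptor, using homogenised membranes of human-receptor-expressing CHO-K1 cells in pH 7.4 Tris buffer. Bound label was filtered and gamma-counted, with 1 μM bombesin as nonspecific. Ki values came from IC50 via Cheng-Prusoff.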

human NMB receptor (BB1) = target: T2, human NMB receptor (BB1) (Homo sapiens, UniProt P28336); assay: BB1 binding assay ([125I][Tyr4]bombesin displacement, CHO-K1 membranes); conditions: read-out: hBB1 Ki
T2 construct: expressed in transfected cells; membranes prepared from the cells
T2 sequence (P28336 whole entry): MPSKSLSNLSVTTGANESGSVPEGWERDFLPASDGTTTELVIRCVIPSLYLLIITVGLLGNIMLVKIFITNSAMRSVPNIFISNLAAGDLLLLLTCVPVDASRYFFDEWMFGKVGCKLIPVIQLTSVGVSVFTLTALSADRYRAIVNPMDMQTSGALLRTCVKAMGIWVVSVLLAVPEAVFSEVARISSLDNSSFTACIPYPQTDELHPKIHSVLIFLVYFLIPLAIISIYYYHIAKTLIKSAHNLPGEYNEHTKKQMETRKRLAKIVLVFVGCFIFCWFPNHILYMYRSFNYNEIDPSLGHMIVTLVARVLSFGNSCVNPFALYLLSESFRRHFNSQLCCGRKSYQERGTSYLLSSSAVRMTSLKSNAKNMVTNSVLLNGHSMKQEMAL
In short: as §1

[1] = Plasma sexual hormone levels in ovariectomised female rats (radioimmunoassay); format: in vivo, rat
Description: Ovariectomised adult female Sprague Dawley rats (180-200 g) were housed in groups of 6 in a reversed lighting system of 12 h light:dark (lights off 7.00-19.00 h). They were used for the experiments at least two weeks after ovariectomy. Forty eight hours before tests, the animals were primed with oestradiol benzoate (5 μg/0.1 ml in corn oil, s.c.). Progesterone (0.5 mg/0.1 ml, in corn oil, s.c.) was administered 4 h before blood collection, as a positive control. Compound (1) (3-10 mg/kg, i.p.) was administered in 50% 2-hydroxypropyl-β-cyclodextrin, 1 h prior to blood collection. Blood was collected from the trunk, after decapitation. It was immediately centrifuged (3500 r.p.m., 4° C., 5 min) and the plasmas frozen until assayed for hormonal content, using commercially available radioimmunoassay kits (^125I-labelled hormones) for oestradiol, progesterone, LH, FSH and prolactin.

[2] = test system: female rat sexual proceptivity (NMB-inhibited); assay: Inhibition of female rat proceptivity by i.c.v. NMB and its antagonism; format: in vivo; conditions: progesterone 0.5 mg s.c. 4 h; NMB 100 ng i.c.v. 10 min before test in progesterone-treated rats; Compound (1) 15 mg/kg i.p. 1 h before NMB (FIG. 5)
Description: Ovariectomised female rats (Sprague Dawley, obtained from Charles River, UK) were stereotaxically implanted (coordinates 0.89 mm behind Bregma, 1.3 mm lateral and 2.5 mm vertical) with stainless steel cannulae (6 mm long, O.D. 0.75 mm), held in place with dental cement. Animals were housed in groups of three and returned to a reversed lighting system of 12 h light:dark (lights off 5.00-17.00 h). Correct placement of the cannulae was assessed post-mortem. Rats were used for tests two weeks after ovariectomy (one week after cannulation). The experiments started at least 5 h into the dark period. Forty eight hours before tests, the animals were primed with 5 μg oestradiol benzoate (OB) (s.c, in corn oil) and adapted to the apparatus (in the absence of stimuli animals) for 10 min on 2 consecutive days prior testing. The 10 min test was carried out as previously described. The difference in the percentage of time spent investigating male minus female was calculated, out of the total time spent investigating stimuli.
Progesterone (Prog, 0.5 mg/0.1 ml) was dissolved in corn oil and administered subcutaneously (s.c.), 4 h before test, to induce proceptive behaviour. Compound (1) (15 mg/kg, i.p.) was dissolved in 50% 2-hydroxypropyl-β-cyclodextrin in saline and administered 1 h before the i.c.v. administration. Neuromedin B was obtained from Bachem, UK. It was dissolved in isotonic saline and administered i.c.v. over a 30 sec period, with the aid of a pump set to deliver a flow of 10 μl/min, 10 min before tests. The dosing volume was 5 μl/rat. Each rat received a total amount of 100 ng.

T1 sequence (P30550 whole entry): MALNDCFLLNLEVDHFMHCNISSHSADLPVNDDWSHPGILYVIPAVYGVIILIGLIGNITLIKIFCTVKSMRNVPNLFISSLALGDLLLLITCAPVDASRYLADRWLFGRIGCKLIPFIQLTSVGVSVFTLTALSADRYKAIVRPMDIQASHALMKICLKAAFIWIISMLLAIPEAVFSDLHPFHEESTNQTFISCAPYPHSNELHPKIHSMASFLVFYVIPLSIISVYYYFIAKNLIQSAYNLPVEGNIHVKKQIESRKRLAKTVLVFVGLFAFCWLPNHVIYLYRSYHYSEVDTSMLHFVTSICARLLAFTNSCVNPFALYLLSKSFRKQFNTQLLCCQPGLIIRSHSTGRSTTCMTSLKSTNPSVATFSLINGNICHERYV

Compound	Ki (human GRP receptor (BB2))	Ki (human NMB receptor (BB1))	plasma levels of progesterone ([1]; Compound (1) 3-10 mg/kg i.p. 1 h, progesterone 0.5 mg s.c. 4 h before blood collection, vs vehicle (FIG. 6))	plasma levels of LH ([1]; Compound (1) 3-10 mg/kg i.p. 1 h, progesterone 0.5 mg s.c. 4 h before blood collection, vs vehicle (FIG. 9))	plasma levels of oestradiol ([1]; Compound (1) 3-10 mg/kg i.p. 1 h before blood collection (FIG. 7))	plasma levels of prolactin ([1]; Compound (1) 3-10 mg/kg i.p. 1 h before blood collection (FIG. 8))	plasma levels of FSH ([1]; Compound (1) 3-10 mg/kg i.p. 1 h before blood collection (FIG. 10))	proceptivity (percentage of time investigating male minus female stimulus) [2]
C[C@@](Cc1c[nH]c2ccccc12)(NC(=O)Nc1ccc([N+](=O)[O-])cc1)C(=O)NCC1(c2ccc(N)cc2)CCCCC1 [Compound 3, (2S)-N-{[1-(4-aminophenyl)cyclohexyl]methyl}-3-(1H-indol-3-yl)-2-methyl-2-{[(4-nitroanilino)-carbonyl]amino}propanamide]	0.046 µM	0.00025 µM	–	–	–	–	–	–
COc1ccc(C2(CNC(=O)[C@](C)(Cc3c[nH]c4ccccc34)NC(=O)Nc3ccc([N+](=O)[O-])cc3)CCCCC2)nc1 [Compound (1), (S) 3-(1H-Indol-3-yl)-N-[1-(5-methoxy-pyridin-2-yl)-cyclohexyl-methyl]-2-methyl-2-[3-(4-nitro-phenyl)-ureido]-propionamide]	–	–	no effect	no effect	no effect	no effect	no effect	prevented the inhibitory effect of NMB

From US20020169101A1, “Treatment of sexual dysfunction” (priority 1999, published 2002)
